Assay results: patent US20110152090A1, “HERBICIDAL COMPOSITIONS COMPRISING FLUFENACET” (Bayer CropScience AG, priority 2009, published 2011)

Key:
Format in all cases: in vivo
[1] = tested on: APESV (Apera Spica-venti); test: Greenhouse trial: different sowing depths, PE application (test method 10); conditions: g of AS/ha: (A) 90, (B) 1200, (C) 90
Procedure: (§1) In the standard design of the test, seeds of various broad-leaved weed and weed grass biotypes (origins) were sown in a 8-13 cm diameter pot filled with natural soil of a standard field soil (loamy silt; non-sterile) and covered with a covering soil layer of about 1 cm. The pots were then cultivated in a greenhouse (12-16 h of light, temperature day 20-22° C., night 15-18° C.) until the time of application. The pots were treated on a laboratory track sprayer with spray liquors comprising the compositions according to the invention, mixtures of the prior art or components used individually. Application of the active compounds or active compound combinations formulated as WG, WP, EC or otherwise was carried out at the appropriate growth stages of the plants. The application rate for the spray application was 100-600 l of water/ha. After the treatment, the plants were returned to the greenhouses.
(§2) About 3 weeks after the application, the soil action or/and foliar action was assessed visually according to a scale of 0-100% in comparison to an untreated comparative group: 0%=no noticeable effect compared to the untreated comparative group; 100%=full effect compared to the untreated comparative group.
(§3) (notes: the term “seeds” also includes vegetative propagation forms such as, for example, rhizome pieces; abbreviations used: h light=hours of illumination, g of AS/ha=gram of active substance per hectare, l/ha=liter per hectare, S=sensitive, R=resistant) • 1. Pre-emergence action against weeds: seeds of various broad-leaved weed and weed grass biotypes (origins) were sown in a 8-13 cm diameter pot filled with natural soil of a standard field soil (loamy silt; non-sterile) and covered with a covering soil layer of about 1 cm. The pots were then cultivated in a greenhouse (12-16 h of light, temperature day 20-22° C., night 15-18° C.) until the time of application. The pots were treated at the BBCH stage 00-10 of the seeds/plants on a laboratory track sprayer with spray liquors comprising the compositions according to the invention, mixtures or components used individually, as WG, WP, EC or other formulations. The application rate for the spray application was 100-600 l of water/ha. After the treatment, the plants were returned to the greenhouses and, when required, treated with fertilizer and watered. • 2. Post-emergence action against weeds: seeds of various broad-leaved weed and weed grass biotypes (origins) were sown in a 8-13 cm diameter pot filled with natural soil of a standard field soil (loamy silt; non-sterile) and covered with a covering soil layer of about 1 cm. The pots were then cultivated in a greenhouse (12-16 h of light, temperature day 20-22° C., night 15-18° C.) until the time of application. The pots were treated at various BBCH stages between 11-25 of the seeds/plants, i.e. generally between two to three weeks after the start of the cultivation, on a laboratory track sprayer with spray liquors comprising the compositions according to the invention, mixtures or components used individually, as WG, WP, EC or other formulations. The application rate for the spray application was 100-600 l of water/ha. After the treatment, the plants were returned to the greenhouses and, when required, treated with fertilizer and watered. • 3. Pre-emergence action against weeds with and without incorporation of active compound: seeds of various broad-leaved weed and weed grass biotypes (origins) were sown in a 8-13 cm diameter pot filled with natural soil of a standard field soil (loamy silt; non-sterile). […]

[2] = tested on: MATCH (Matricaria chamomilla); test: as above; conditions: g of AS/ha: (A) 90, (B) 1200, (C) 90
Procedure: as §1, §2, §3

[3] = tested on: HORVS (Hordeum vulgare, summer barley); test: Greenhouse trial: different soil types (test method 8), crop; conditions: g AS/ha: (A) 120, (B) 1200, (C) 90
Procedure: as §1, §2, §3

[4] = tested on: HORVS (Hordeum vulgare, summer barley); test: Greenhouse trial: selective PO action (test method 5); conditions: PO application; g of AS/ha: (A) 120, (B) 1600, (C) 120
Procedure: as §1, §2
(§4) (notes: the term “seeds” also includes vegetative propagation forms such as, for example, rhizome pieces; abbreviations used: h light=hours of illumination, g of AS/ha=gram of active substance per hectare, l/ha=liter per hectare, S=sensitive, R=resistant) • 1. Pre-emergence action against weeds: seeds of various broad-leaved weed and weed grass biotypes (origins) were sown in a 8-13 cm diameter pot filled with natural soil of a standard field soil (loamy silt; non-sterile) and covered with a covering soil layer of about 1 cm. The pots were then cultivated in a greenhouse (12-16 h of light, temperature day 20-22° C., night 15-18° C.) until the time of application. […]

LOLPE (Lolium perenne) [5] = test: Greenhouse trial: pre-sowing application vs PE application (test method 6)
Procedure: as §1, §2, §3

AVEFA (Avena fatua) [6] = test: as above
Procedure: as §1, §2, §3

STEME (Stellaria media) [7] = test: Greenhouse trial: PE soil application vs incorporation into the soil (test methods 1, 3); conditions: g of AS/ha: (A) 90, (B) 1200, (C) 90, (D) 300
Procedure: as §1, §2, §3

POAAN (Poa annua) [8] = test: as above; conditions: g of AS/ha: (A) 90, (B) 1200, (C) 90, (D) 300
Procedure: as §1, §2, §3

[9] = tested on: HORVS (Hordeum vulgare, summer barley); test: Greenhouse trial: pre-sowing application vs PE application (test method 6), crop, PE part; conditions: PE application; g of AS/ha: (A) 90, (B) 1200, (C) 90
Procedure: as §1, §2, §4

[10] = tested on: APESV (Apera Spica-venti); test: Greenhouse trial: PO application (test method 2); conditions: g of AS/ha: (A) 120, (B) 1600, (C) 120
Procedure: as §1, §2, §3

STEME (Stellaria media) [11] = test: Greenhouse trial: PO application (test method 2); conditions: g of AS/ha: (A) 120, (B) 1600, (C) 120
Procedure: as §1, §2, §3

POAAN (Poa annua) [12] = test: Greenhouse trial: PO application (test method 2); conditions: g of AS/ha: (A) 120, (B) 1600, (C) 120
Procedure: as §1, §2, §3

[13] = tested on: TRZAS (Triticum aestivum, summer wheat); test: Greenhouse trial: crop selectivity, PE soil application vs incorporation (test methods 3, 4); conditions: g of AS/ha: (A) 90, (B) 1200, (C) 90, (D) 300
Procedure: as §1
as §2, with “group. […]” for “group.”

[14] = tested on: TRZAS (Triticum aestivum, summer wheat); test: Greenhouse trial: pre-sowing application vs PE application (test method 6), crop, pre-sowing part; conditions: application 7 days prior to sowing; g AS/ha: (A) 90, (B) 1200, (C) 90
Procedure: as §1, §2, §4

[15] = tested on: LOLSS (Lolium species), sensitive and resistant; test: Greenhouse trial: resistant biotypes, PE application (test method 9); conditions: g of AS/ha: (A) 90, (B) 1200, (C) 90, iodosulfuron 10
Procedure: as §1, §2, §3

[16] = tested on: STEME (Stellaria media), sensitive and resistant; test: as above; conditions: g of AS/ha: (A) 90, (B) 1200, (C) 90, iodosulfuron 10
Procedure: as §1, §2, §3

[17] = tested on: MATCH (Matricaria chamomilla), sensitive and resistant; test: as above; conditions: g of AS/ha: (A) 90, (B) 1200, (C) 90, iodosulfuron 10
Procedure: as §1, §2, §3

LOLPE (Lolium perenne) [18] = test: Greenhouse trial: different soil types (test method 8); conditions: g of AS/ha: (A) 120, (B) 1200, (C) 90
Procedure: as §1, §2, §3

[19] = tested on: MATCH (Matricaria chamomilla); test: as above; conditions: g of AS/ha: (A) 120, (B) 1200, (C) 90
Procedure: as §1, §2, §3

LOLPE (Lolium perenne) [20] = test: Greenhouse trial: different irrigation systems (test method 7); conditions: g of AS/ha: (A) 120, (B) 1200, (C) 90
Procedure: as §1, §2, §3

AVEFA (Avena fatua) [21] = test: as above; conditions: g of AS/ha: (A) 120, (B) 1200, (C) 90
Procedure: as §1, §2, §3

[22] = tested on: MATCH (Matricaria chamomilla); test: as above; conditions: g of AS/ha: (A) 120, (B) 1200, (C) 90
Procedure: as §1, §2, §3

[23] = PE application, g of AS/ha: (A) 90, (B) 1200, (C) 90
[24] = application 7 days prior to sowing, g AS/ha: (A) 90, (B) 1200, (C) 90

O=C(Nc1ccc(F)cc1F)c1cccnc1Oc1cccc(C(F)(F)F)c1 [(C) diflufenican, N-(2,4-difluorophenyl)-2-[3-(trifluoromethyl)phenoxy]-3-pyridinecarboxamide]
activity APESV 5 mm (visual scale 0-100%) ([1]; sowing depth 5 mm): 5% | activity APESV 20 mm (visual scale 0-100%) ([1]; sowing depth 20 mm): 5% | activity MATCH 5 mm (visual scale 0-100%) ([2]; sowing depth 5 mm): 60% | activity MATCH 20 mm (visual scale 0-100%) ([2]; sowing depth 20 mm): 70% | activity on crop HORVS IU soil (visual scale 0-100%) ([3]; IU soil): 0% | activity on crop HORVS IU/EC73 soil (visual scale 0-100%) ([3]; IU/EC73 soil): 0% | activity on crop HORVS (visual scale 0-100%) [4]: 5% | activity LOLPE (visual scale 0-100%) (LOLPE (Lolium perenne) [5]; [23]): 20% | activity LOLPE (visual scale 0-100%) (LOLPE (Lolium perenne) [5]; [24]): 10% | activity AVEFA (visual scale 0-100%) (AVEFA (Avena fatua) [6]; [23]): 30% | activity AVEFA (visual scale 0-100%) (AVEFA (Avena fatua) [6]; [24]): 10% | activity STEME (visual scale 0-100%) (STEME (Stellaria media) [7]; PE application): 50% | activity STEME (visual scale 0-100%) (STEME (Stellaria media) [7]; incorporation into the soil): 95% | activity POAAN (visual scale 0-100%) (POAAN (Poa annua) [8]; PE application): 70% | activity POAAN (visual scale 0-100%) (POAAN (Poa annua) [8]; incorporation into the soil): 92% | activity on crop HORVS (visual scale 0-100%) [9]: 5% | activity APESV (visual scale 0-100%) [10]: 5% | activity STEME (visual scale 0-100%) (STEME (Stellaria media) [11]): 30% | activity POAAN (visual scale 0-100%) (POAAN (Poa annua) [12]): 5% | activity on crop TRZAS (visual scale 0-100%) ([13]; PE application): 0% | activity on crop TRZAS (visual scale 0-100%) ([13]; incorporation into the soil): 30% | activity on crop TRZAS (visual scale 0-100%) [14]: 5% | activity LOLSS resistant (visual scale 0-100%) ([15]; resistant biotype): 20% | activity LOLSS sensitive (visual scale 0-100%) ([15]; sensitive biotype): 80% | activity STEME resistant (visual scale 0-100%) ([16]; resistant biotype): 50% | activity STEME sensitive (visual scale 0-100%) ([16]; sensitive biotype): 70% | activity MATCH resistant (visual scale 0-100%) ([17]; resistant biotype): 30% | activity MATCH sensitive (visual scale 0-100%) ([17]; sensitive biotype): 30% | activity LOLPE IU soil (visual scale 0-100%) (LOLPE (Lolium perenne) [18]; IU soil): 45% | activity LOLPE IU/EC73 soil (visual scale 0-100%) (LOLPE (Lolium perenne) [18]; IU/EC73 soil): 0% | activity MATCH IU soil (visual scale 0-100%) ([19]; IU soil): 40% | Difference of the soil types, MATCH ([19]; IU/EC73 soil vs IU soil): −5% | activity MATCH IU/EC73 soil (visual scale 0-100%) ([19]; IU/EC73 soil): 35% | activity LOLPE (visual scale 0-100%) (LOLPE (Lolium perenne) [20]; irrigation from above): 20% | activity LOLPE (visual scale 0-100%) (LOLPE (Lolium perenne) [20]; irrigation from below): 20% | activity AVEFA (visual scale 0-100%) (AVEFA (Avena fatua) [21]; irrigation from above): 50% | activity AVEFA (visual scale 0-100%) (AVEFA (Avena fatua) [21]; irrigation from below): 30% | activity MATCH (visual scale 0-100%) ([22]; irrigation from above): 0% | activity MATCH (visual scale 0-100%) ([22]; irrigation from below): 50%
